Measured values taken from PMC4508061, “Selectivity Profiling and Biological Activity of Novel β-Carbolines as Potent and Selective DYRK1 Kinase Inhibitors” (PLoS ONE, 2015).

Columns and labels:
ABL2 = ABL2 (Homo sapiens, UniProt P42684); experiment: ProQinase radiometric kinase panel; conditions: mean of 2 exp.
BMX = BMX (Homo sapiens, UniProt P51813); experiment: ProQinase radiometric kinase panel; conditions: mean of 2 exp.
VEGF-R1 = VEGF-R1 (Homo sapiens, UniProt P17948); experiment: ProQinase radiometric kinase panel; conditions: mean of 2 exp.
Chain of VEGF-R1 (P17948 27-1338): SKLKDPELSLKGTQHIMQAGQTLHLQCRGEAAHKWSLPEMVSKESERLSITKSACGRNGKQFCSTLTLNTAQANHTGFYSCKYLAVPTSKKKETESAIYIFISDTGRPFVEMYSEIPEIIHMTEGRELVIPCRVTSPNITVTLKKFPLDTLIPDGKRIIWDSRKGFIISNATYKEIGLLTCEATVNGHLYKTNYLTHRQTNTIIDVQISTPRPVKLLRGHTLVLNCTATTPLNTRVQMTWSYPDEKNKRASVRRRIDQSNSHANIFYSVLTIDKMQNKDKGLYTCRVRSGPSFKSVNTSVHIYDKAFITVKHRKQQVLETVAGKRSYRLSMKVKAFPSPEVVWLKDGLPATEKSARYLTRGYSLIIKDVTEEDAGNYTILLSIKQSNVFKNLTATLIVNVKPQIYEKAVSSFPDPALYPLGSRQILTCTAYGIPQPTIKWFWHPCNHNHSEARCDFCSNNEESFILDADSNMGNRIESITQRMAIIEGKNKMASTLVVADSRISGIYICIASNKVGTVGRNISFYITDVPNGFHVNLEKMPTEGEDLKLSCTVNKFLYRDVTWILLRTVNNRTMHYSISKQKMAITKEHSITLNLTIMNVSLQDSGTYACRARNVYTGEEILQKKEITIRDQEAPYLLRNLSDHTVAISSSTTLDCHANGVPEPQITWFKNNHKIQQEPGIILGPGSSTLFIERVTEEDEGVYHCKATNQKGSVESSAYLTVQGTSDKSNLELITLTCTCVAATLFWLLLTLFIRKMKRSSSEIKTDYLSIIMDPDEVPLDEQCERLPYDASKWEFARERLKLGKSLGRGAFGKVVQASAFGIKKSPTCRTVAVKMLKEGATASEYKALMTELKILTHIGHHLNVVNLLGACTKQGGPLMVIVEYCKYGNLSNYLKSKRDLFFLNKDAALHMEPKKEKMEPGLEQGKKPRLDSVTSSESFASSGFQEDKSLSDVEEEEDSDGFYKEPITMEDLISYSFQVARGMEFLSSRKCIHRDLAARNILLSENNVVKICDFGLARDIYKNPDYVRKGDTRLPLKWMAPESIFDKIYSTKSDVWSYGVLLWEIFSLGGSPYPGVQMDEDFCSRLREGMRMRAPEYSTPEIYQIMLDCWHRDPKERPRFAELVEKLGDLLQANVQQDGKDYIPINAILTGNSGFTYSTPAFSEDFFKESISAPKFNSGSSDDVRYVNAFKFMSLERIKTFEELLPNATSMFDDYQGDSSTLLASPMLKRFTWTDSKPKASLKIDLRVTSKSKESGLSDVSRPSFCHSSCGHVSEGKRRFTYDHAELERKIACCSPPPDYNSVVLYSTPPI

MARK2 = MARK2 (Homo sapiens, UniProt Q7KZI7); experiment: ProQinase radiometric kinase panel; conditions: mean of 2 exp.
MKNK1 = MKNK1 (Homo sapiens, UniProt Q9BUB5); experiment: ProQinase radiometric kinase panel; conditions: mean of 2 exp.
MST3 = MST3 (Homo sapiens, UniProt Q9Y6E0); experiment: ProQinase radiometric kinase panel; conditions: mean of 2 exp.
DAPK3 = DAPK3 (Homo sapiens, UniProt O43293); experiment: ProQinase radiometric kinase panel; conditions: mean of 2 exp.
CAMK2B = CAMK2B (Homo sapiens, UniProt Q13554); experiment: ProQinase radiometric kinase panel; conditions: mean of 2 exp.
AMPK-alph1 = AMPK-alph1 (Homo sapiens, UniProt Q13131); experiment: ProQinase radiometric kinase panel; conditions: mean of 2 exp.
BMPR1A = BMPR1A (Homo sapiens, UniProt P36894); experiment: ProQinase radiometric kinase panel; conditions: mean of 2 exp.
VEGF-R2 = VEGF-R2 (Homo sapiens, UniProt P35968); experiment: ProQinase radiometric kinase panel; conditions: mean of 2 exp.
GRK3 = GRK3 (Homo sapiens, UniProt P35626); experiment: ProQinase radiometric kinase panel; conditions: mean of 2 exp.
PAK3 = PAK3 (Homo sapiens, UniProt O75914); experiment: ProQinase radiometric kinase panel; conditions: mean of 2 exp.
MEKK3 = MEKK3 (Homo sapiens, UniProt Q99759); experiment: ProQinase radiometric kinase panel; conditions: mean of 2 exp.
HIPK1 = HIPK1 (Homo sapiens, UniProt Q86Z02); experiment: ProQinase radiometric kinase panel; conditions: mean of 2 exp.
NLK = NLK (Homo sapiens, UniProt Q9UBE8); experiment: ProQinase radiometric kinase panel; conditions: mean of 2 exp.
INSR-R = INSR-R (Homo sapiens, UniProt P14616); experiment: ProQinase radiometric kinase panel; conditions: mean of 2 exp.
MINK1 = MINK1 (Homo sapiens, UniProt Q8N4C8); experiment: ProQinase radiometric kinase panel; conditions: mean of 2 exp.
CK2-alpha1 = CK2-alpha1 (Homo sapiens, UniProt P68400); experiment: ProQinase radiometric kinase panel; conditions: mean of 2 exp.
Chain of CK2-alpha1 (P68400 whole entry): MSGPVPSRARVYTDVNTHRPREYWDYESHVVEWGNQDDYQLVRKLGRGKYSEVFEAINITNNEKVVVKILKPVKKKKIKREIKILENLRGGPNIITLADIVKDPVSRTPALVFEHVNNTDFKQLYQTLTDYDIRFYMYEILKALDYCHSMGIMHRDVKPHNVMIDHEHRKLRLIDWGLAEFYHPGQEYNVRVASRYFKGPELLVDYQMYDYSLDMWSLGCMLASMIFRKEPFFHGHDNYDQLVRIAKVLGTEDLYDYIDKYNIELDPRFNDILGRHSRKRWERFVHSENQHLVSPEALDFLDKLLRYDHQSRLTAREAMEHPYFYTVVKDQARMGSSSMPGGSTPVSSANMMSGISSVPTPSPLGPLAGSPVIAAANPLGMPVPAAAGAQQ

PAK7 = PAK7 (Homo sapiens, UniProt Q9P286); experiment: ProQinase radiometric kinase panel; conditions: mean of 2 exp.
DDR2 = DDR2 (Homo sapiens, UniProt Q16832); experiment: ProQinase radiometric kinase panel; conditions: mean of 2 exp.
Chain of DDR2 (Q16832 22-855): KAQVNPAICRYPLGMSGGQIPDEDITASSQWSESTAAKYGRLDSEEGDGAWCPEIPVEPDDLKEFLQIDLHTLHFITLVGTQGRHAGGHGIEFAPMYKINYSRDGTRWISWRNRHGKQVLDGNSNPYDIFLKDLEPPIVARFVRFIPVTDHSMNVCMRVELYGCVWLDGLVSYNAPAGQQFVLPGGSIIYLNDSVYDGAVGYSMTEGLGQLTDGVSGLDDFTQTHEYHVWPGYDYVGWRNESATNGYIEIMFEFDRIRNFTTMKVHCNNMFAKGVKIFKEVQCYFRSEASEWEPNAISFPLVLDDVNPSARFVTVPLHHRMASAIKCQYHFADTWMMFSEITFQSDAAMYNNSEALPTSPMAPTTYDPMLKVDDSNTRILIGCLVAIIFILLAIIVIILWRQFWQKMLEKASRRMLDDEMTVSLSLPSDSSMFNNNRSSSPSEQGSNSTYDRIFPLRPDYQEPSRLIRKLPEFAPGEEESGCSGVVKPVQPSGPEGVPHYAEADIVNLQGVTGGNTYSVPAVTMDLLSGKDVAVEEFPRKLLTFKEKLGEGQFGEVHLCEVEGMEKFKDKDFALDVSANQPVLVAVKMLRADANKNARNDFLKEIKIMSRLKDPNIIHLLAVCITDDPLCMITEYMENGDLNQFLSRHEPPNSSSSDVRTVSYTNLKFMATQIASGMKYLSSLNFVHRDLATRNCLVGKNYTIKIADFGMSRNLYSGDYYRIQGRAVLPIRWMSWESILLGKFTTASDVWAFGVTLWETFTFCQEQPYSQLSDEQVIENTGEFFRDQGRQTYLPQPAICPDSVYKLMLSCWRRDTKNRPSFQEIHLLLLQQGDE

PDGFR-beta = PDGFR-beta (Homo sapiens, UniProt P09619); experiment: ProQinase radiometric kinase panel; conditions: mean of 2 exp.
TSK2 = TSK2 (Homo sapiens, UniProt Q96PF2); experiment: ProQinase radiometric kinase panel; conditions: mean of 2 exp.
TRK-B = TRK-B (Homo sapiens, UniProt Q16620); experiment: ProQinase radiometric kinase panel; conditions: mean of 2 exp.
FLT3 = FLT3 (Homo sapiens, UniProt P36888); experiment: ProQinase radiometric kinase panel; conditions: mean of 2 exp.
GSK3-alpha = GSK3-alpha (Homo sapiens, UniProt P49840); experiment: ProQinase radiometric kinase panel; conditions: mean of 2 exp.
PIM2 = PIM2 (Homo sapiens, UniProt Q9P1W9); experiment: ProQinase radiometric kinase panel; conditions: mean of 2 exp.
PASK = PASK (Homo sapiens, UniProt Q96RG2); experiment: ProQinase radiometric kinase panel; conditions: mean of 2 exp.
Chain of PASK (Q96RG2 whole entry): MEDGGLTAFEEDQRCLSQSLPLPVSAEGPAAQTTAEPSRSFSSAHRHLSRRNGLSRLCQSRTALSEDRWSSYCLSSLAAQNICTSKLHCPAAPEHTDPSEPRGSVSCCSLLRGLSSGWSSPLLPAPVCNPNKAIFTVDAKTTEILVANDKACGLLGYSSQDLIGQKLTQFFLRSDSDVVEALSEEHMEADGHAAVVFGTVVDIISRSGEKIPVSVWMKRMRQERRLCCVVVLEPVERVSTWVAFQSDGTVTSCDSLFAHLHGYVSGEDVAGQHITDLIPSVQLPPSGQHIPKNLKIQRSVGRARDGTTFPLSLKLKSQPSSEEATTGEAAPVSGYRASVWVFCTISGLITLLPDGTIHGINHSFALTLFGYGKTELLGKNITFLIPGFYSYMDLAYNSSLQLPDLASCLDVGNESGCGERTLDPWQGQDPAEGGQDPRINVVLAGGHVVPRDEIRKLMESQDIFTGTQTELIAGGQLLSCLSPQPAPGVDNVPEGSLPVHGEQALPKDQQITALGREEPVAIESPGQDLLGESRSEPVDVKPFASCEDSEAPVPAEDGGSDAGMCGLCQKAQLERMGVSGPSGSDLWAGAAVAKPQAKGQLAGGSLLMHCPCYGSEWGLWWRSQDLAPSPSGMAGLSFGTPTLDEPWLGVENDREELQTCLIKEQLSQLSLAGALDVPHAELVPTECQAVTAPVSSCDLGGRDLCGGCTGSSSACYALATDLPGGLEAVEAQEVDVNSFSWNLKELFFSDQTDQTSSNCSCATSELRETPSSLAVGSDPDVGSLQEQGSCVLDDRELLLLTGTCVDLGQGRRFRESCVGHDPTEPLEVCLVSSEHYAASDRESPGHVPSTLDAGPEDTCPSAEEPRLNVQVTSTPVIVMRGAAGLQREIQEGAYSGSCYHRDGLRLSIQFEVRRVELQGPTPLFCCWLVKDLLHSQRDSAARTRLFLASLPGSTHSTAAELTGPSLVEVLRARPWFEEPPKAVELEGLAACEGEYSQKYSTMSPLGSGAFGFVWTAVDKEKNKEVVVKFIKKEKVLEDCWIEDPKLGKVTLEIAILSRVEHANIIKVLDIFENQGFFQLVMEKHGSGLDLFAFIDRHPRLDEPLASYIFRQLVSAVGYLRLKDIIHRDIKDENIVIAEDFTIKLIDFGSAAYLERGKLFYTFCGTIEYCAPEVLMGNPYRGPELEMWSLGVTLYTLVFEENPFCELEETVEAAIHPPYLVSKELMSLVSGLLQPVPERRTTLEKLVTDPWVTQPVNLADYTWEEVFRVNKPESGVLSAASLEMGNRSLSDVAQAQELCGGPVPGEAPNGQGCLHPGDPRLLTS

MST4 = MST4 (Homo sapiens, UniProt Q9P289); experiment: ProQinase radiometric kinase panel; conditions: mean of 2 exp.
RET = RET (Homo sapiens, UniProt P07949); experiment: ProQinase radiometric kinase panel; conditions: mean of 2 exp.
Chain of RET (P07949 29-1114): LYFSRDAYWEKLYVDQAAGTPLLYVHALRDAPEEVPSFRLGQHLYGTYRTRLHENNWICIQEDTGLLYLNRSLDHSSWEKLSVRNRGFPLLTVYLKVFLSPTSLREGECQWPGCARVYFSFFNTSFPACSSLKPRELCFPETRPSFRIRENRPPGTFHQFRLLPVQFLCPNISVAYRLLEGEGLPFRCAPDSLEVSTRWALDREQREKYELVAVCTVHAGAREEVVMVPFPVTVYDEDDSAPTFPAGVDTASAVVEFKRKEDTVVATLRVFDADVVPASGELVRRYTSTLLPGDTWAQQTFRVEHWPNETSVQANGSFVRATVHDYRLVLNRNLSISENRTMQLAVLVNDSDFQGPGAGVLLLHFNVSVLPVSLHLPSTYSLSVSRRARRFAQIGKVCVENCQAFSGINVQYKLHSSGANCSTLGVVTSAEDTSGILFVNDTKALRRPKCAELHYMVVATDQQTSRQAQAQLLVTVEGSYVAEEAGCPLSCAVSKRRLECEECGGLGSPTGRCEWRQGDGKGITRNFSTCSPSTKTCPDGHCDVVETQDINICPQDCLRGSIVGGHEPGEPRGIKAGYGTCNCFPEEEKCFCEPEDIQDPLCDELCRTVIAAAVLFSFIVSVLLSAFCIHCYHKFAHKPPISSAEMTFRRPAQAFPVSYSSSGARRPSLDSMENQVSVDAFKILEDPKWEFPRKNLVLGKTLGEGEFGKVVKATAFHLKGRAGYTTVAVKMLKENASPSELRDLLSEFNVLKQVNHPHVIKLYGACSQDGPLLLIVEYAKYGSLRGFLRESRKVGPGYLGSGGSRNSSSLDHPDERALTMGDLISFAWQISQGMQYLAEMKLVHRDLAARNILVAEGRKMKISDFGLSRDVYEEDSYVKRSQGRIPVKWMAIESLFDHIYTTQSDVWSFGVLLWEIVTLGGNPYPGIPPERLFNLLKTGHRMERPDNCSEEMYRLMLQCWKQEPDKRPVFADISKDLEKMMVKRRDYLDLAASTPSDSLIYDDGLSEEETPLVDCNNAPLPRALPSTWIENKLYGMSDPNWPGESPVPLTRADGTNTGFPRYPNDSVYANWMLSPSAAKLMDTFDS

PKC-gamma = PKC-gamma (Homo sapiens, UniProt P05129); experiment: ProQinase radiometric kinase panel; conditions: mean of 2 exp.
GRK6 = GRK6 (Homo sapiens, UniProt P43250); experiment: ProQinase radiometric kinase panel; conditions: mean of 2 exp.
CHK1 = CHK1 (Homo sapiens, UniProt O14757); experiment: ProQinase radiometric kinase panel; conditions: mean of 2 exp.
PRK1 = PRK1 (Homo sapiens, UniProt Q16512); experiment: ProQinase radiometric kinase panel; conditions: mean of 2 exp.
RON = RON (Homo sapiens, UniProt Q04912); experiment: ProQinase radiometric kinase panel; conditions: mean of 2 exp.
HeLa cells = experiment: Cell viability XTT assay; assay type: cell-based; conditions: up to 10 μM, 3 days
Cell viability XTT assay = assay type: cell-based; conditions: human, HeLa cells, read-out: Viability of treated cells relative to untreated control
NEK1 = NEK1 (Homo sapiens, UniProt Q96PY6); experiment: ProQinase radiometric kinase panel; conditions: mean of 2 exp.
IKK-alpha = IKK-alpha (Homo sapiens, UniProt O15111); experiment: ProQinase radiometric kinase panel; conditions: mean of 2 exp.

residual activity at 1 µM, Mean (ABL2): 96 % of control | residual activity at 1 µM, Mean (BMX): 79 % of control | residual activity at 1 µM, Mean (VEGF-R1): 89 % of control | residual activity at 1 µM, Mean (MARK2): 98 % of control | residual activity at 1 µM, Mean (MKNK1): 103 % of control | residual activity at 1 µM, Mean (MST3): 104 % of control | residual activity at 1 µM, Mean (DAPK3): 98 % of control | residual activity at 1 µM, Mean (CAMK2B): 92 % of control | residual activity at 1 µM, Mean (AMPK-alph1): 92 % of control | residual activity at 1 µM, Mean (BMPR1A): 89 % of control | residual activity at 1 µM, Mean (VEGF-R2): 98 % of control | residual activity at 1 µM, Mean (GRK3): 92 % of control | residual activity at 1 µM, Mean (PAK3): 95 % of control | residual activity at 1 µM, Mean (MEKK3): 97 % of control | residual activity at 1 µM, Mean (HIPK1): 91 % of control | residual activity at 1 µM, Mean (NLK): 92 % of control | residual activity at 1 µM, Mean (INSR-R): 97 % of control | residual activity at 1 µM, Mean (MINK1): 92 % of control | residual activity at 1 µM, Mean (CK2-alpha1): 96 % of control | residual activity at 1 µM, Mean (PAK7): 90 % of control | residual activity at 1 µM, Mean (DDR2): 97 % of control | residual activity at 1 µM, Mean (PDGFR-beta): 88 % of control | residual activity at 1 µM, Mean (TSK2): 92 % of control | residual activity at 1 µM, Mean (TRK-B): 72 % of control | residual activity at 1 µM, Mean (FLT3): 70 % of control | residual activity at 1 µM, Mean (GSK3-alpha): 81 % of control | residual activity at 1 µM, Mean (PIM2): 107 % of control | residual activity at 1 µM, Mean (PASK): 74 % of control | residual activity at 1 µM, Mean (MST4): 92 % of control | residual activity at 1 µM, Mean (RET): 89 % of control | residual activity at 1 µM, Mean (PKC-gamma): 108 % of control | residual activity at 1 µM, Mean (GRK6): 98 % of control | residual activity at 1 µM, Mean (CHK1): 100 % of control | residual activity at 1 µM, Mean (PRK1): 94 % of control | residual activity at 1 µM, Mean (RON): 96 % of control | residual activity at 1 µM, Mean (NEK1): 101 % of control | residual activity at 1 µM, Mean (IKK-alpha): 60 % of control
SMILES: COc1ccc2c3ccnc(Cl)c3n(CC#N)c2c1 [AnnH75]
cytotoxicity (HeLa cells): minimal cytotoxicity | viability at 3 days, 1 µM (Cell viability XTT assay; 1 μM): 100% | viability at 3 days, 3 µM (Cell viability XTT assay; 3 μM): 93%
